Measurements from PMC9783783 (Pharmaceutics, 2022).

Tests used:
[1] = Protocol: Enzyme kinetics in the hepatic and intestinal microsomes were determined according to a previously reported method. Microsomal protein concentrations in the liver and intestine were measured using bicinchoninic acid assay. […] The total volume was adjusted to 1 mL by adding 0.1 M phosphate-buffered solution (pH 7.4) to the system, and the samples were incubated for 15 min in a water-bath shaker at 37 °C at the rate of 50 oscillations per min. The reaction was completed by adding 2 volumes of methanol. Subsequently, two 50 μL aliquots of each reaction mixture were collected.
[2] = rats, intraportal administration; cited from earlier work
[3] = human, oral; cited from earlier work
[4] = in vivo; details: for AUC / clearance / CL renal / half-life / Vd / Cmax / bioavailability / Tmax: rat, in vivo; for clearance: CL; for CL renal: CLR; for half-life: Terminal half-life; for Vd: Vss; for bioavailability: F (absolute oral bioavailability), 20 mg/kg oral vs 10 mg/kg i.v.
Protocol: All surgical procedures were performed following anesthesia with 100 mg/kg ketamine according to a previously reported method. For the intravenous study, the carotid artery and jugular vein were cannulated for blood sampling and drug administration, respectively. For the oral study, rats were restrained from food overnight but were allowed to drink water ad libitum. Only the carotid artery was cannulated for the blood sampling.
A heparinized 0.9% NaCl-injectable solution (10 IU/mL) was immediately flushed into the carotid artery after collecting the blood samples to prevent blood clotting.
The volume of the combined urine was then measured, and two 100 μL aliquot samples were collected. At the same time, the rat abdomen was surgically opened, and the whole gastrointestinal tract was collected in a beaker containing 50 mL methanol and cut into small pieces. After even mixing, 50 µL of the supernatant was collected.
Pharmacokinetic parameters were estimated using the standard method by non-compartmental analysis (WinNonlin; Pharsight Corporation, Mountain View, CA, USA). AUC values were calculated using the trapezoidal rule–extrapolation method. The peak plasma concentration (Cmax) and time to reach Cmax (Tmax) were measured directly from the plasma concentration–time curves. […] The glomerular filtration rate was measured by calculating the CLCR, assuming that the kidney function was stable during the experimental period.

[5] = test system: P-gp; details: cited from earlier work
[6] = in vitro; details: for fraction unbound at 24 h, 10 μg/mL: rat, plasma, pH 7.4, Plasma protein binding
Protocol: Rat plasma (1 mL) from each group was dialyzed against 1 mL of isotonic Sørensen phosphate buffer (pH 7.4) containing 3% dextran (“the buffer”) via a Spectra/Por 2 membrane (molecular weight cutoff: 12,000–14,000 Da; Spectrum Medical Industries, Los Angeles, CA, USA). […] The binding percentage (%) was calculated as follows:(1) Binding %=CP−CB/CP×100

[7] = various pH buffers (pH 2–10) and gastric juice (pH 3.5), 24 h; cited from earlier work
[8] = rats (n = 3), 10 mg/kg i.v.; cited from earlier work
[9] = hepatic microsomes, LC rats vs CON rats
[10] = LC rats vs CON rats, 10 mg/kg i.v.
[11] = LC rats vs CON rats, 20 mg/kg oral
[12] = LC-ISN rats vs CON rats, 10 mg/kg i.v.
[13] = LC-ISN rats vs CON rats, 20 mg/kg oral
[14] = LC-ISN rats vs LC rats, 10 mg/kg i.v.
[15] = LC-ISN rats vs LC rats, 20 mg/kg oral
[16] = iv, 10 mg/kg, CON rats, 10 mg/kg i.v. 1 min infusion
[17] = iv, 10 mg/kg, LC rats, 10 mg/kg i.v. 1 min infusion
[18] = iv, 10 mg/kg, LC-ISN rats, 10 mg/kg i.v. 1 min infusion
[19] = iv, 10 mg/kg, CON rats, 10 mg/kg i.v.
[20] = iv, 10 mg/kg, LC rats, 10 mg/kg i.v.
[21] = iv, 10 mg/kg, LC-ISN rats, 10 mg/kg i.v.
[22] = po, 20 mg/kg, CON rats, 20 mg/kg oral
[23] = po, 20 mg/kg, LC rats, 20 mg/kg oral
[24] = po, 20 mg/kg, LC-ISN rats, 20 mg/kg oral

For `CC1CCN(C(=O)CC#N)CC1N(C)c1ncnc2[nH]ccc12` (stereo not drawn) [tofacitinib, 3-(4-methyl-3-(methyl(7H-pyrrolo[2,3-d]pyrimidin-4yl)amino)piperidin-1-yl)-3-oxopropanenitrile], the “Km for disappearance of tofacitinib” value ([1]; hepatic microsomes, CON, LC and LC-ISN rats) was “comparable among the three groups of rats”, the “Decrease in hepatic CLint” value [1, 9] was 64.9% and the “Slower Vmax for disappearance of tofacitinib” value [1, 9] was 63.4%. The “Hepatic CLint recovered to % of CON rats” value ([1]; hepatic microsomes, LC-ISN rats vs CON rats) was 92.2%, the “Intestinal CLint” value ([1]; intestinal microsomes, CON, LC and LC-ISN rats) was “not significantly different among the three groups of rats” and the Hepatic first-pass effect [2] was 42.0%. For the same compound, the “Fraction excreted by the kidneys in unmetabolized form” value [3] was 30%, the “Ae0–24 h (excreted in urine as unchanged for 24 h)” value ([4]; CON rats, 10 mg/kg i.v.) was 13.9 ± 2.28 % of dose and the CLNR ([4]; CON rats, 10 mg/kg i.v.) was 21.1 ± 4.57 mL/min/kg. The “GI24 h (remained in the gastrointestinal tract at 24 h)” value ([4]; CON rats, 10 mg/kg i.v.) was 0.164 ± 0.102 % of dose, the “Ae0–24 h” value ([4]; CON rats, 20 mg/kg oral) was 11.8 ± 4.08 % of dose and the GI24 h ([4]; CON rats, 20 mg/kg oral) was 0.106 ± 0.101 % of dose. The “Greater Ae0–24 h” value [4, 10] was 189%, the “Increase in AUC” value [4, 10] was 158% and the “Increase in Vss” value [4, 10] was 86.0%. The Longer terminal half-life [4, 10] was 219%, the “Slower CL” value [4, 10] was 54.4% and the “Slower CLNR” value [4, 10] was 69.9%. The “Increase in AUC” value [4, 11] was 429%, the “Increase in Ae0–24 h” value [4, 11] was 203% and the “Increase in Cmax” value [4, 11] was 158%. The “Increase in F” value [4, 11] was 105%, the “Ae0–24 h (excreted in urine as unchanged for 24 h)” value ([4]; LC rats, 10 mg/kg i.v.) was 40.2 ± 18.9 % of dose and the CLNR ([4]; LC rats, 10 mg/kg i.v.) was 6.35 ± 1.27 mL/min/kg. For the same compound, the “GI24 h (remained in the gastrointestinal tract at 24 h)” value ([4]; LC rats, 10 mg/kg i.v.) was 2.07 ± 2.12 % of dose, the “Ae0–24 h” value ([4]; LC rats, 20 mg/kg oral) was 35.8 ± 16.9 % of dose and the GI24 h ([4]; LC rats, 20 mg/kg oral) was 1.73 ± 2.04 % of dose. For the same compound, the “Greater Ae0–24 h” value [4, 12] was 117%, the “Increase in terminal half-life” value [4, 12] was 64.4% and the “Slower CL” value [4, 12] was 42.7%. For the same compound, the “Slower CLNR” value [4, 12] was 54.1%, the “Increase in AUC” value [4, 13] was 223% and the “Increase in Ae0–24 h” value [4, 13] was 204%. For the same compound, the “Increase in Cmax” value [4, 13] was 72.2%, the “Increase in F” value [4, 13] was 92.9% and the “Decrease in AUC” value [4, 14] was 35.1%. For the same compound, the “Decrease in terminal half-life” value [4, 14] was 48.5%, the “Decrease in AUC” value [4, 15] was 38.9% and the “Decrease in Cmax” value [4, 15] was 33.2%. The “Ae0–24 h (excreted in urine as unchanged for 24 h)” value ([4]; LC-ISN rats, 10 mg/kg i.v.) was 30.1 ± 12.3 % of dose, the CLNR ([4]; LC-ISN rats, 10 mg/kg i.v.) was 9.68 ± 2.40 mL/min/kg and the “GI24 h (remained in the gastrointestinal tract at 24 h)” value ([4]; LC-ISN rats, 10 mg/kg i.v.) was 0.166 ± 0.135 % of dose. The “Ae0–24 h” value ([4]; LC-ISN rats, 20 mg/kg oral) was 35.9 ± 16.8 % of dose, the GI24 h ([4]; LC-ISN rats, 20 mg/kg oral) was 0.340 ± 0.288 % of dose and the AUC [4, 16] was 7330 ng·h/mL. The AUC [4, 17] was 18900 ng·h/mL, the AUC [4, 18] was 12300 ng·h/mL and the clearance [4, 19] was 24.1 ± 6.27 mL/min/kg. The clearance [4, 20] was 11 ± 2.06 mL/min/kg, the clearance [4, 21] was 13.8 ± 1.73 mL/min/kg and the CL renal [4, 19] was 3.73 ± 1.09 mL/min/kg. For the same compound, the CL renal [4, 20] was 4.65 ± 2.74 mL/min/kg, the CL renal [4, 21] was 4.1 ± 1.64 mL/min/kg and the half-life [4, 16] was 35.4 ± 19.2 min. For the same compound, the half-life [4, 17] was 113 ± 43.7 min, the half-life [4, 18] was 58.2 ± 16.8 min and the Vd [4, 19] was 0.429 ± 0.253 L/kg. The Vd [4, 20] was 0.798 ± 0.177 L/kg, the Vd [4, 21] was 0.8 ± 0.326 L/kg and the AUC [4, 22] was 6400 ng·h/mL. For the same compound, the AUC [4, 23] was 33800 ng·h/mL, the AUC [4, 24] was 20700 ng·h/mL and the CL renal [4, 22] was 6.98 ± 2.99 mL/min/kg. It also gave a CL renal [4, 23] of 3.62 ± 1.78 mL/min/kg, a CL renal [4, 24] of 5.71 ± 2.47 mL/min/kg and a Cmax [4, 22] of 3530 ± 1460 ng/mL. The Cmax [4, 23] was 9100 ± 1260 ng/mL, the Cmax [4, 24] was 6080 ± 1990 ng/mL and the bioavailability ([4]; po, 20 mg/kg, CON rats) was 43.6%. The bioavailability ([4]; po, 20 mg/kg, LC rats) was 89.5%, the bioavailability ([4]; po, 20 mg/kg, LC-ISN rats) was 84.1% and the Tmax [4, 22] was 50 min. For the same compound, the Tmax [4, 23] was 55.7 min, the Tmax [4, 24] was 85.7 min and the GI24 h ([4]; the three groups of rats, 20 mg/kg oral) was “less than 1.73 % of the oral dose”. The P-gp substrate [5] was “substrate of P-gp”, the “Decrease in plasma protein binding” value ([6]; LC rats vs CON rats) was 28.3% and the “Decrease in plasma protein binding” value ([6]; LC-ISN rats vs CON rats) was 21.5%. For the same compound, the fraction unbound at 24 h, 10 μg/mL ([6]; CON rat plasma, 10 μg/mL tofacitinib, 37 °C, 24 h) was 0.749, the fraction unbound at 24 h, 10 μg/mL ([6]; LC rat plasma, 10 μg/mL tofacitinib, 37 °C, 24 h) was 0.82 and the fraction unbound at 24 h, 10 μg/mL ([6]; LC-ISN rat plasma, 10 μg/mL tofacitinib, 37 °C, 24 h) was 0.803. The fraction unbound at 24 h, 10 μg/mL ([6]; range over CON, LC and LC-ISN rats) was 0.749 to 0.82, the Stability [7] was “stable” and the Biliary excretion [8] was 0.703 % of the unchanged drug dose.
